The results in this text go back to patent publication EP2739618B1, “QUINAZOLINE COMPOUNDS AS SERINE/THREONINE KINASE INHIBITORS” (Array Biopharma, Inc., priority 2011, dated 2013).

T1 sequence (P28482 8-360): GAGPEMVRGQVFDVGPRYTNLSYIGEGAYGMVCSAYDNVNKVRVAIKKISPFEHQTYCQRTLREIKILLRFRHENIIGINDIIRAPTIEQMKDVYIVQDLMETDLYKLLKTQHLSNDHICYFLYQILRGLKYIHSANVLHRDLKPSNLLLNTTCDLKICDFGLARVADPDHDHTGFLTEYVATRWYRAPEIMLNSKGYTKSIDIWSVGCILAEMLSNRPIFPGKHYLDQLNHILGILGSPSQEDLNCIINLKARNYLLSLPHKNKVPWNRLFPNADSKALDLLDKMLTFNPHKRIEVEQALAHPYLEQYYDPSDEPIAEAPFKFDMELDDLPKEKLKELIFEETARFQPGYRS

The assay addresses T1, human ERK-2 (Mitogen Activated Kinase 1) (Homo sapiens, UniProt P28482).
T1 construct: N-terminal 6-His fusion protein in E. coli and corresponding to aa 8-360; 6-His (N); made in house; host or cells: E. coli
Nature of the assay: ERK-2 Enzymatic Assay. It is filed as biochemical. As to conditions: TABLE I; 5nM ERK-2 enzyme, 25µM ATP, S/T17 peptide substrate; single assay or mean of multiple assays. The method, then: Compounds were tested in an enzymatic assay using human ERK-2 (Mitogen Activated Kinase 1), recombinantly expressed as an N-terminal 6-His fusion protein in E. coli and corresponding to aa 8-360. The substrate used was the fluorescent Omnia peptide S/T17 (Invitrogen of Carlsbad, CA; Cat. KNZ1171C). Test compounds were diluted in DMSO in 3-fold serial dilutions at 100x final concentrations. […] The assay was run at ambient temperature in a white 384-well polypropylene plate (Nunc, Inc of Naperville, IL; Cat. 267462) collecting data every 50 seconds for approximately 30 minutes on an Envision plate reader (PerkinElmer, Inc. of Waltham, MA); Excitation 340 nm/Emission 495 nm. The data collected from each well was fit to a straight line and the resulting rates were used to calculate percent of control. Percent of control was plotted against compound concentration and IC50 values were determined using a four-parameter fit. Representative data is in TABLE I and TABLE II. The reported IC50 may be from a single assay or the mean of multiple assays.
Turning to `Cn1cc([C@@H](NC(=O)c2ccc3cnc(N[C@@H]4CCOC[C@H]4F)nc3c2)c2ccc(Cl)c(F)c2)cn1` [Compound I-30, 2-((3S,4R)-3-fluoro-tetrahydropyran-4-ylamino)-quinazoline-7-carboxylic acid [(S)-(4-chloro-3-fluoro-phenyl)-(1-methyl-1H-pyrazol-4-yl)-methyl]-amide], the IC50 (usually the concentration needed to halve the response being measured) turned out to be 2.1 nM. `COc1ccc([C@H](NC(=O)c2ccc3cnc(NC4CCOCC4)nc3c2)[C@H]2C[C@H](F)CN2)cc1F` [Compound I-31, 2-(tetrahydropyran-4-ylamino)-quinazoline-7-carboxylic acid [(S)-(3-fluoro-4-methoxy-phenyl)-((2R,4S)-4-fluoro-pyrrolidin-2-yl)-methyl]-amide] yielded an IC50 of 1.7 nM. `COc1ccc([C@H](NC(=O)c2ccc3cnc(NC4CCOCC4)nc3c2)c2cnn(C)c2)cc1F` [Compound I-32, 2-(tetrahydropyran-4-ylamino)-quinazoline-7-carboxylic acid [(S)-(3-fluoro-4-methoxy-phenyl)-(1-methyl-1H-pyrazol-4-yl)-methyl]-amide] returned an IC50 of 1.1 nM.

With `COc1ccc([C@H](NC(=O)c2cc(F)c3cnc(NC4CCOCC4)nc3c2)c2cnn(C)c2)cc1F` [Compound I-33, 5-fluoro-2-(tetrahydropyran-4-ylamino)-quinazoline-7-carboxylic acid [(S)-(3-fluoro-4-methoxy-phenyl)-(1-methyl-1H-pyrazol-4-yl)-methyl] -amide], the midpoint of inhibition, the IC50, lay at 1.5 nM. `O=C(N[C@@H](c1ccc(F)c(Cl)c1)[C@]1(F)CCNC1)c1ccc2cnc(NC3CCOCC3)nc2c1` [Compound I-36] had an IC50 of 1.6 nM.

For `O=C(N[C@H](c1ccc(F)c(Cl)c1)[C@@]1(F)CCNC1)c1ccc2cnc(NC3CCOCC3)nc2c1` [Compound I-37], the IC50 worked out at 73.6 nM. To `O=C(N[C@H](c1ccc(F)c(Cl)c1)[C@]1(F)CCNC1)c1ccc2cnc(NC3CCOCC3)nc2c1` [Compound I-38] belongs 65.4 nM; to `Cn1cc([C@@H](NC(=O)c2ccc3cnc(N[C@H]4CCO[C@H](CO)C4)nc3c2)c2ccc(Cl)c(F)c2)cn1` [Compound I-42, 2-((2S,4S)-2-hydroxymethyl-tetrahydro-pyran-4-ylamino)-quinazoline-7-carboxylic acid [(S)-(4-chloro-3-fluoro-phenyl)-(1-methyl-1H-pyrazol-4-yl)-methyl]-amide], 7.2 nM; to `COc1ccc([C@H](NC(=O)c2ccc3cnc(NC4CCOCC4)nc3c2)c2cnn(C)c2)cc1Cl` [Compound I-44, 2-(tetrahydro-pyran-4-ylamino)-quinazoline-7-carboxylic acid [(S)-(3-chloro-4-methoxy-phenyl)-(1-methyl-1H-pyrazol-4-yl)-methyl]-amide], 1 nM. As to `COc1ccc([C@H](NC(=O)c2ccc3cnc(N[C@H]4CCO[C@H](CO)C4)nc3c2)c2cnn(C)c2)cc1F` [Compound I-46, N-((S)-(3-fluoro-4-methoxyphenyl)(1-methyl-1H-pyrazol-4-yl)methyl)-2-((2S,4S)-2-(hydroxymethyl)tetrahydro-2H-pyran-4-ylamino)quinazoline-7-carboxamide], the IC50 was 4.2 nM. To `COc1ccc([C@@H](NC(=O)c2ccc3cnc(NC4CCOCC4)nc3c2)c2cnn(C)c2)cc1C#N` [Compound I-49, (R)-N-((3-cyano-4-methoxyphenyl)(1-methyl-1H-pyrazol-4-yl)methyl)-2-(tetrahydro-2H-pyran-4-ylamino)quinazoline-7-carboxamide] belongs 141 nM; to `COc1ccc([C@H](NC(=O)c2cc(F)c3cnc(NC4CCOCC4)nc3c2)c2cnn(C)n2)cc1F` [Compound I-51, (S)-5-Fluoro-N-((3-fluoro-4-methoxyphenyl)(2-methyl-2H-1,2,3-triazol-4-yl)methyl)-2-(tetrahydro-2H-pyran-4-ylamino)quinazoline-7-carboxamide], 2.8 nM.
